Measured values as given in PubChem BioAssay AID602210 (Sanford-Burnham Center for Chemical Genomics, 2012).
Calls of active or inactive are those of the source. No rule for the calls is given here.

Assay: modulators of 2-deoxyglucose-induced H9c2 death, dose response, myocardial damage modulator project, cell-based, ATPlite luminescence, rat, set 2 (AID 602210)
Conditions: H9c2 rat cardiomyoblasts, 2-deoxyglucose-induced death, 2 h

Compound	IC50
O=C(CNC(=O)c1nc[nH]c1C(=O)NCC(=O)OCc1ccccc1)OCc1ccccc1	0.953 µM
Cn1c(-n2c(CCCN3C(=O)c4ccccc4C3=O)nc3ccccc3c2=O)nc2ccccc21	> 79 µM (inactive)
COc1ccnc(Oc2ccccc2)c1C(=O)N/C=N/OCc1ccc(F)cc1Cl	8.39 µM
COc1ccc(-c2ccc3c(c2)S(=O)(=O)c2cccc(C(=O)N4CCN(c5c(Cl)cncc5Cl)CC4)c2C3=O)cc1OC	8.36 µM
c1ccc(N2CCOCC2)c(Nc2nc3ccccc3n3cnnc23)c1	33.1 µM (inactive)
CC1Cc2ccccc2N1C(=O)c1cc2c(=O)n3ccccc3nc2n1C (centres undefined)	7.6 µM
CCOC(=O)c1cc2c(=O)n3ccccc3nc2n(Cc2ccco2)c1=NC(=O)c1cccnc1	23 µM (inactive)
CC(=O)Nc1cccc(NC(=O)c2cc(-c3cccnc3)nc3ccc(Br)cc23)c1	> 79 µM (inactive)
O=C(Nc1cccc(NC(=O)c2ccc([N+](=O)[O-])o2)c1)c1ccco1	3.85 µM
CC1CN(c2nn3c(=O)c4ccccc4nc3c3ccccc23)CC(C)O1 (centres undefined)	> 79 µM (inactive)
Cc1ccc(C=NNc2nc3c([nH]2)c(=O)n(C)c(=O)n3C)cc1	11 µM (inactive)
CC(=O)Nc1cccc(-c2cc(NC(C)=O)c3ncc(-c4ccccc4)n3c2)c1	12.2 µM (inactive)
Cc1nnc2ccc(-c3cccc(NC(=O)c4ccc(Cl)nc4)c3)nn12	45.9 µM (inactive)
Cc1ccc(-c2nnc(NCc3nc4ccccc4[nH]3)c3ccccc23)cc1S(=O)(=O)N1CCOCC1	11.3 µM (inactive)
COc1ccc(/C=N/NC(=O)c2cc(-c3ccc4c(c3)OCO4)n[nH]2)cc1OC	9.02 µM
COc1cc(-c2cc(C(=O)N3CCN(c4ccccn4)CC3)c3ccccc3n2)cc(OC)c1OC	26.2 µM (inactive)
CCOC(=O)C1CCCN(C(=O)CCC(=O)Nc2ccc3nc(N4CCOCC4)cc(C)c3c2)C1 (centres undefined)	38.8 µM (inactive)
C[C@H](NC(=O)c1nc[nH]c1C(=O)NCC(=O)OCc1ccccc1)c1ccccc1	14.3 µM (inactive)
Cc1nc(NC(=O)c2cc3c(C)nn(-c4ccccc4)c3s2)sc1C(=O)Nc1ccccc1	> 79 µM (inactive)
COc1cc(NC(=O)c2csc(-c3ccncc3)n2)cc(C(=O)Nc2cccc(C(F)(F)F)c2)c1	7.25 µM
N#C/C(=C\Nc1ccc2c(c1)OCCO2)c1nc2ccccc2[nH]1	17.3 µM (inactive)
CCOc1cc(-c2cc(-c3ccc(N)cc3)nc(N)c2C#N)ccc1O	11.8 µM (inactive)

Compound	IC50
Cc1ccc(NC(=O)c2nc[nH]c2C(=O)NCCCNC(=O)c2[nH]cnc2C(=O)Nc2ccc(C)cc2)cc1	1.33 µM
COc1cc2nc(Nc3ccc(F)cc3)nc(N)c2cc1OC	> 79 µM (inactive)
CC(=O)NCCNc1nc2c(-c3ccccc3)nnn2c2ccccc12	13.2 µM (inactive)
COc1cc(NC(=O)c2cc3nc(-c4ccccc4)cc(-c4ccccc4)n3n2)cc(OC)c1OC	7.15 µM
Cc1ccc2nc(-c3ccccc3)cc(C(=O)NNC(=O)c3csc(N4CCOCC4)n3)c2c1	12.4 µM (inactive)
COc1ccc(/C=C/C(=O)c2ccccc2O)cc1CN1CCOCC1	25.7 µM (inactive)
COc1cccc(-c2cnc3c(NC=O)cc(-c4cccc(C(=O)N(C)C)c4)cn23)c1	> 79 µM (inactive)
O=C(N/N=C/c1ccncc1)c1ccc(COc2cccc3cccnc23)cc1	> 79 µM (inactive)
CC(C)(C)OC(=O)CNC(=O)c1[nH]cnc1C(=O)Nc1ccc(CNC(=O)OC(C)(C)C)cc1	5.09 µM
CC(=O)c1cccc(-c2cnc3c(NC=O)cc(-c4ccc(F)cc4)cn23)c1	> 79 µM (inactive)
COC(=O)c1cc(NC(=O)c2cc3ccccc3o2)cc(C(=O)OC)c1	23.9 µM (inactive)
Cc1c(C(=O)NCC2COc3ccccc3O2)oc2ccc(S(=O)(=O)N3CCOCC3)cc12 (centres undefined)	5.65 µM
N#Cc1c(-c2ccco2)cc(-c2ccccn2)nc1N	37.2 µM (inactive)
COC(=O)c1cc(NC(=O)Nc2cc(OC)ccc2OC)cc(C(=O)OC)c1	> 79 µM (inactive)
C[C@@H]1CN([C@H](C)CO)S(=O)(=O)c2ccc(C#Cc3ccccc3F)cc2O[C@H]1CN(C)C(=O)c1ccc2c(c1)OCO2	8.38 µM
CCN(CC)c1ccc(C2C(C(=O)OC(C)C)C(=O)CC(C)(O)C2C(=O)OC(C)C)cc1 (centres undefined)	20.5 µM (inactive)
Nc1c(C(=O)NC2CC2)c2nc3ccccc3nc2n1-c1ccc2c(c1)OCO2	> 79 µM (inactive)
CNC(=O)c1ccc(-c2sc3nc(N4CCOCC4)c4c(c3c2N)CC(C)(C)OC4)o1	21.3 µM (inactive)
Cc1c(OCC(=O)NCCN2CCOCC2)ccc2c1oc(=O)c1ccccc12	17.1 µM (inactive)
COc1ccc(C(=O)Nc2nc(-c3ccccn3)cs2)cc1S(=O)(=O)N1CCOCC1	26.8 µM (inactive)
C/C(=N\Nc1nnc2c3ccccc3n(C)c2n1)c1ccc(C)o1	12.3 µM (inactive)
CCN(CC)C(=O)c1ccc2c3c(cccc13)C(=O)N(CCc1ccc(OC)c(OC)c1)C2=O	25 µM (inactive)

Compound	IC50
COc1ccc(Nc2nc(C(=O)N3CCc4cc(OC)c(OC)cc4C3)cs2)cc1	14.2 µM (inactive)
COCCn1cnc2c(c1=O)c1nc3ccccc3nc1n2/N=C/c1cccc(OC)c1	> 79 µM (inactive)
CCOC(=O)c1cnc(Nc2nc3ccccc3o2)nc1CSc1nnc(C)s1	27.3 µM (inactive)
CC(C)=NNc1cnnc2ccc([N+](=O)[O-])cc12	13.4 µM (inactive)
CCOc1ccc(-n2cc(-c3ccccc3)c3c(N4CCOCC4)ncnc32)cc1	10.3 µM (inactive)
COc1ccc(C=NNc2nc3c([nH]2)c(=O)n(C)c(=O)n3C)cc1	16.6 µM (inactive)
CC(=O)c1cccc(-c2cnc3c(NC=O)cc(-c4ccccc4F)cn23)c1	17.9 µM (inactive)
COc1cc(/C=N/NC(=O)c2cccnc2)ccc1OS(=O)(=O)c1ccc(F)cc1	21.2 µM (inactive)
O=C(CSc1nnc(-c2ccccc2)n1Cc1ccccc1)NNC(=O)c1ccccc1O	> 79 µM (inactive)
COc1cc(C(=O)N/N=C/c2ccc(OC(=O)c3cccc(C)c3)c(OC)c2)ccc1O	14.2 µM (inactive)
CCOC(=O)C1CCN(c2cc3c(cc2NC(=O)c2ccc(F)cc2)n(C)c(=O)n3C)CC1	28.5 µM (inactive)
COc1ccc(C(=O)COC(=O)C(CCCCN2C(=O)C3C4C=CC(C4)C3C2=O)N2C(=O)C3C4C=CC(C4)C3C2=O)cc1 (centres undefined)	11.8 µM (inactive)
COC(=O)c1ccc(N)c(N=CC2=C(O)CC(C)(C)CC2=O)c1	11.9 µM (inactive)
CCOC(=O)C1=C(C)N=c2s/c(=C\c3ccncc3)c(=O)n2C1c1ccc2c(c1)OCO2 (centres undefined)	30.3 µM (inactive)
COC(=O)c1[nH]c2cc(OC)c(OC)cc2c1/C=N/Nc1ccccc1	> 79 µM (inactive)
CS(=O)(=O)c1ccc(-c2cnc3c(NC=O)cc(-c4ccsc4)cn23)cc1	23 µM (inactive)
O=C(CSc1nnc(Cc2cccs2)n1CCc1ccccc1)N1CCCc2ccccc21	13.9 µM (inactive)
COc1ccc(-c2ccc3[nH]c4c(c3c2)CCN2C[C@H]3[C@H](C)ON(C)[C@H]3C[C@@H]42)cc1	29.8 µM (inactive)
O=C1OCCN1C(=O)[C@H]1[C@H](c2ccc([N+](=O)[O-])cc2)C(c2ccc(F)cc2)=NN1c1ccc(Br)cc1	8.93 µM
Cn1nc(C(=O)Nc2nc(-c3ccccn3)cs2)c2ccccc2c1=O	> 79 µM (inactive)
